Assay results from PubChem BioAssay AID2060505 (Molecular Pharmacology Branch, DTP, NCI, 2025).
pIC50: −log10 of the molar value.

Tested on: 633275-114-R-J1-PDC complex spheroids, viability
Assay: Anticancer human tumor 633275-114-R-J1-PDC patient-derived endometrial adenocarcinoma cell line growth inhibition [GQUAD]
Settings: for pIC50: curve of first compound; for viability, T/C: stronger effect = lower value
Summary of the method: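 Viability of tumor cells grown as complex spheroids with endothelial and stromal cells, exposed to drug combinations. Top concentration at or near clinical Cmax (else 10 microM), diluted in half-log increments.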

[1] = second compound 0.0316 µM, first compound 0.0316 µM
[2] = second compound 0.0316 µM, first compound 0.316 µM
[3] = second compound 0.1 µM, first compound 0.0316 µM
[4] = second compound 0.1 µM, first compound 0.316 µM
[5] = second compound 0.316 µM, first compound 0.0316 µM
[6] = second compound 0.316 µM, first compound 0.316 µM
[7] = second compound 1 µM, first compound 0.0316 µM
[8] = second compound 1 µM, first compound 0.316 µM
[9] = second compound 3.16 µM, first compound 0.0316 µM
[10] = second compound 3.16 µM, first compound 0.316 µM
[11] = second compound 10 µM, first compound 0.0316 µM
[12] = second compound 10 µM, first compound 0.316 µM
[13] = second compound 0.0316 µM, first compound 0.1 µM
[14] = second compound 0.0316 µM, first compound 1 µM
[15] = second compound 0.0316 µM, first compound 3.16 µM
[16] = second compound 0.0316 µM, first compound 10 µM
[17] = second compound 0.1 µM, first compound 0.1 µM
[18] = second compound 0.1 µM, first compound 1 µM
[19] = second compound 0.1 µM, first compound 3.16 µM
[20] = second compound 0.1 µM, first compound 10 µM
[21] = second compound 0.316 µM, first compound 0.1 µM
[22] = second compound 0.316 µM, first compound 1 µM
[23] = second compound 0.316 µM, first compound 3.16 µM
[24] = second compound 0.316 µM, first compound 10 µM
[25] = second compound 1 µM, first compound 0.1 µM
[26] = second compound 1 µM, first compound 1 µM
[27] = second compound 1 µM, first compound 3.16 µM
[28] = second compound 1 µM, first compound 10 µM
[29] = second compound 3.16 µM, first compound 0.1 µM
[30] = second compound 3.16 µM, first compound 1 µM
[31] = second compound 3.16 µM, first compound 3.16 µM
[32] = second compound 3.16 µM, first compound 10 µM
[33] = second compound 10 µM, first compound 0.1 µM
[34] = second compound 10 µM, first compound 1 µM
[35] = second compound 10 µM, first compound 3.16 µM
[36] = second compound 10 µM, first compound 10 µM
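Also: spheroids exposed to the agents for seven days.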
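For viability, T/C in this document: percent of DMSO vehicle control viability which is 100%.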

`Cc1[nH]c2ccccc2c1CCNCc1ccc(/C=C/C(=O)NO)cc1` + CN(C)c1ccc(Nc2c3ccc(NC(=O)CCN4CCCC4)cc3nc3cc(NC(=O)CCN4CCCC4)ccc23)cc1 gave a pIC50 (second compound 0.0316 µM) of 7.08, a pIC50 (second compound 0.1 µM) of 7.26 and a pIC50 (second compound 0.316 µM) of 7.26. It also gave a pIC50 (second compound 1 µM) of 7.32, a pIC50 (second compound 3.16 µM) of 7.61 and a pIC50 (second compound 10 µM) of over 9.00. For the same molecule, the viability, T/C (second compound 0.0316 µM, first compound 0.000999 µM) was 97.4%, the viability, T/C (second compound 0.0316 µM, first compound 0.00316 µM) was 94.7% and the viability, T/C (second compound 0.0316 µM, first compound 0.00999 µM) was 84.9%. For the same molecule, the viability, T/C [1] was 59.6%, the viability, T/C (second compound 0.0316 µM, first compound 0.0999 µM) was 51.3% and the viability, T/C [2] was 21.6%. The viability, T/C (second compound 0.1 µM, first compound 0.000999 µM) was 94.2%, the viability, T/C (second compound 0.1 µM, first compound 0.00316 µM) was 102% and the viability, T/C (second compound 0.1 µM, first compound 0.00999 µM) was 80.5%. It also gave a viability, T/C [3] of 57.1%, a viability, T/C (second compound 0.1 µM, first compound 0.0999 µM) of 43% and a viability, T/C [4] of 22%. The viability, T/C (second compound 0.316 µM, first compound 0.000999 µM) was 96.8%, the viability, T/C (second compound 0.316 µM, first compound 0.00316 µM) was 97.4% and the viability, T/C (second compound 0.316 µM, first compound 0.00999 µM) was 70.5%. The viability, T/C [5] was 60.5%, the viability, T/C (second compound 0.316 µM, first compound 0.0999 µM) was 41.2% and the viability, T/C [6] was 19.4%. The viability, T/C (second compound 1 µM, first compound 0.000999 µM) was 88%, the viability, T/C (second compound 1 µM, first compound 0.00316 µM) was 83.4% and the viability, T/C (second compound 1 µM, first compound 0.00999 µM) was 67.3%. It also gave a viability, T/C [7] of 58.1%, a viability, T/C (second compound 1 µM, first compound 0.0999 µM) of 38.4% and a viability, T/C [8] of 18.3%. The viability, T/C (second compound 3.16 µM, first compound 0.000999 µM) was 82.4%, the viability, T/C (second compound 3.16 µM, first compound 0.00316 µM) was 80.2% and the viability, T/C (second compound 3.16 µM, first compound 0.00999 µM) was 61.2%. For the same molecule, the viability, T/C [9] was 48.6%, the viability, T/C (second compound 3.16 µM, first compound 0.0999 µM) was 26.3% and the viability, T/C [10] was 15.4%. It also gave a viability, T/C (second compound 10 µM, first compound 0.000999 µM) of 34.1%, a viability, T/C (second compound 10 µM, first compound 0.00316 µM) of 29.8% and a viability, T/C (second compound 10 µM, first compound 0.00999 µM) of 21%. For the same molecule, the viability, T/C [11] was 23.4%, the viability, T/C (second compound 10 µM, first compound 0.0999 µM) was 13.6% and the viability, T/C [12] was 4.56%.

In the case of `C=CCn1c(=O)c2cnc(Nc3ccc(N4CCN(C)CC4)cc3)nc2n1-c1cccc(C(C)(C)O)n1` + Cc1cnc(CNC(=O)c2c(=O)c3ccc(N4CCCN(C)CC4)nc3n3c2sc2ccccc23)cn1, the pIC50 (second compound 0.0316 µM) was 6.89, the pIC50 (second compound 0.1 µM) was over 7.50 and the pIC50 (second compound 0.316 µM) was over 7.50. It also gave a pIC50 (second compound 1 µM) of over 7.50, a pIC50 (second compound 3.16 µM) of over 7.50 and a pIC50 (second compound 10 µM) of over 7.50. For the same molecule, the viability, T/C [1] was 55.6%, the viability, T/C [13] was 56% and the viability, T/C [2] was 33.9%. It also gave a viability, T/C [14] of 23.6%, a viability, T/C [15] of 19.9% and a viability, T/C [16] of 16.5%. For the same molecule, the viability, T/C [3] was 48.1%, the viability, T/C [17] was 40% and the viability, T/C [4] was 28.9%. The viability, T/C [18] was 22.7%, the viability, T/C [19] was 21.2% and the viability, T/C [20] was 15.2%. It also gave a viability, T/C [5] of 43.8%, a viability, T/C [21] of 39.8% and a viability, T/C [6] of 24.6%. It also gave a viability, T/C [22] of 21.1%, a viability, T/C [23] of 20.7% and a viability, T/C [24] of 16.5%. For the same molecule, the viability, T/C [7] was 34.5%, the viability, T/C [25] was 32.2% and the viability, T/C [8] was 22.4%. It also gave a viability, T/C [26] of 19.9%, a viability, T/C [27] of 20.7% and a viability, T/C [28] of 17.3%. For the same molecule, the viability, T/C [9] was 31.4%, the viability, T/C [29] was 26.6% and the viability, T/C [10] was 18.5%. It also gave a viability, T/C [30] of 22.5%, a viability, T/C [31] of 25% and a viability, T/C [32] of 18.3%. The viability, T/C [11] was 26.8%, the viability, T/C [33] was 20.5% and the viability, T/C [12] was 16.8%. The viability, T/C [34] was 17.8%, the viability, T/C [35] was 22.4% and the viability, T/C [36] was 19.5%.

In the case of `C=CC(=O)N1CCN(c2nc(=O)n(-c3c(C)ccnc3C(C)C)c3nc(-c4c(O)cccc4F)c(F)cc23)C(C)C1` (stereo unspecified) + CN(C)c1ccc(Nc2c3ccc(NC(=O)CCN4CCCC4)cc3nc3cc(NC(=O)CCN4CCCC4)ccc23)cc1, the pIC50 (second compound 0.0316 µM) was under 5.00, the pIC50 (second compound 0.1 µM) was under 5.00 and the pIC50 (second compound 0.316 µM) was under 5.00. It also gave a pIC50 (second compound 1 µM) of under 5.00, a pIC50 (second compound 3.16 µM) of under 5.00 and a pIC50 (second compound 10 µM) of over 7.50. For the same molecule, the viability, T/C [1] was 109%, the viability, T/C [13] was 88% and the viability, T/C [2] was 94.9%. For the same molecule, the viability, T/C [14] was 92.5%, the viability, T/C [15] was 106% and the viability, T/C [16] was 81.8%. The viability, T/C [3] was 98.1%, the viability, T/C [17] was 92% and the viability, T/C [4] was 97.7%. It also gave a viability, T/C [18] of 92.6%, a viability, T/C [19] of 97.2% and a viability, T/C [20] of 76%. The viability, T/C [5] was 92.8%, the viability, T/C [21] was 95.4% and the viability, T/C [6] was 110%. The viability, T/C [22] was 110%, the viability, T/C [23] was 98.9% and the viability, T/C [24] was 76%. It also gave a viability, T/C [7] of 95.5%, a viability, T/C [25] of 88.6% and a viability, T/C [8] of 100%. The viability, T/C [26] was 97.5%, the viability, T/C [27] was 104% and the viability, T/C [28] was 65.2%. The viability, T/C [9] was 84.2%, the viability, T/C [29] was 85.1% and the viability, T/C [10] was 92.1%. For the same molecule, the viability, T/C [30] was 84.5%, the viability, T/C [31] was 78.1% and the viability, T/C [32] was 51.3%. The viability, T/C [11] was 34.3%, the viability, T/C [33] was 34.3% and the viability, T/C [12] was 35.2%. For the same molecule, the viability, T/C [34] was 41%, the viability, T/C [35] was 37.3% and the viability, T/C [36] was 15.4%.
